The test system of assay [1] is splenocytes. Kind of assay: Screening of citrullinated Enolase peptide pools, ex vivo IFNγ Elispot, C57BL/6 mice. The note with it: single immunisation with pool of 4-6 human citrullinated peptides, 20 μg each, CpG/MPLA, day 14, label = peptide used for restimulation. The class given is in vivo, C57BL/6 mouse. The procedure: (§1) C57BL/6 mice (Charles River, UK), HLA-DR4 mice (Taconic, USA), HHDII/DR1 mice (Pasteur institute, France) and the HHD/HLA-DP4 transgenic strain of mouse as described in patent WO2013/017545 A1 (EMMA repository, France) were used, aged between 8 and 12 weeks, and cared for by the staff at Nottingham Trent University. All work was carried out under a Home Office project licence. Peptides were dissolved in PBS to 1 mg/ml and then emulsified (a series of dilutions) with different adjuvants: CpG and MPLA 6 μg/mouse of each (Invivogen, UK), Incomplete Freund's 50 μl/mouse (Sigma, UK), poly I:C 10 μg/mouse (Invivogen, UK), Imiquimod 25 μg/mouse (Invivogen, UK) and GMCSF 10 μg/mouse (Peprotech, UK). Peptides (25 μg/mouse) were injected subcutaneously at the base of the tail. DNA (1 μg/mouse) was coated onto 1.0 μm gold particles (BioRad, Hemel Hempstead, UK) using the manufacturer's instructions and administered intradermally by genegun (BioRad). Homspera (10 nM/mouse) (PeptideSynthetics, UK) was injected intradermally with genegun immunisation. Mice were immunized at either day 0 for peptide immunisation or days, 0 and 7 for genegun immunisation, unless otherwise stated. Spleens were removed for analysis at day 14 for peptide and day 20 for peptide or genegun immunisation unless stated otherwise.
(§2) Elispot assays were performed using murine IFNγ, IL-17 and IL-10 capture and detection reagents according to the manufacturer's instructions (Mabtech, Sweden). In brief, anti-IFNγ, IL-17 and IL-10 antibodies were coated onto wells of 96-well Immobilin-P plate. Synthetic peptides (at a variety of concentrations) and 5×10^5 per well splenocytes were added to the wells of the plate in triplicate. Tumour target cells were added where relevant at 5×10^4/well in triplicate and plates incubated for 40 hrs at 37° C. After incubation, captured IFN and IL-10 were detected by biotinylated anti-IFNγ and IL-10 antibodies and developed with a streptavidin alkaline phosphatase and chromogenic substrate. Spots were analysed and counted using an automated plate reader (Cellular Technologies Ltd).
(§3) Screening was performed to identify potential citrullinated Enolase epitopes in mice. Mice were immunised with pools of 4-6 human citrullinated peptides. […] Each pool was administered as a single immunisation containing 20 μg of each peptide and CpG/MPLA as an adjuvant. After 14 days the mice were culled and the immune responses to each peptide within the immunising pool were assessed by ex vivo Elispot (FIG. 2). In addition, the splenocytes were screened against the murine equivalent sequences. We have previously shown that citrullinated peptides can induce responses in the transgenic DR4 mouse strain. Given that different mouse strains have different MHC repertoires a number of strains were used for screening. Peptide responses were assessed in C57BL/6 mice as well as transgenic strains expressing human DR4 or HHD/DR1 in a C57BL/6 background (see materials and methods).

Assay [2] deals with splenocytes. Kind of assay: Peptide immunisation and ex vivo Elispot, DR4 mice. The note with it: for IFNγ response to the human sequence / IFNγ response to the mouse sequence: single immunisation of the human citrullinated peptide; for IFNγ response to 15mer peptide spanning 241-260: label = 15mer used for restimulation. The format is in vivo, HLA-DR4 transgenic mouse. The procedure: as §1, §2

Assay [3] concerns splenocytes. Briefly: Peptide immunisation and ex vivo Elispot, C57Bl/6 mice. The note with it: C57Bl/6 mice immunised with the human citrullinated peptide. The class given is in vivo, C57Bl/6 mouse. The procedure: as §1, §2
For assay [4], the system named is splenocytes. Kind of assay: Screening of citrullinated Enolase peptide pools, ex vivo IFNγ Elispot, HHD/DR1 mice. The class given is in vivo, transgenic HHD/DR1 mouse. The note with it: single immunisation with pool of 4-6 human citrullinated peptides, 20 μg each, CpG/MPLA, day 14, label = peptide used for restimulation. The procedure:
as §1, §2, §3

The test system of assay [5] is splenocytes. Kind of assay: Peptide immunisation and ex vivo Elispot, DR1/HHD mice. The class given is in vivo, HHD/DR1 transgenic mouse. The note with it: single immunisation of the human citrullinated peptide. The procedure: as §1, §2
For assay [6], the system named is splenocytes. Kind of assay: Screening of citrullinated Enolase peptide pools, ex vivo IFNγ Elispot, DR4 mice. The note with it: single immunisation with pool of 4-6 human citrullinated peptides, 20 μg each, CpG/MPLA, day 14, label = peptide used for restimulation. The format is in vivo, transgenic DR4 mouse. How it is done:
C57BL/6 mice (Charles River, UK), HLA-DR4 mice (Taconic, USA), HHDII/DR1 mice (Pasteur institute, France) and the HHD/HLA-DP4 transgenic strain of mouse as described in patent WO2013/017545 A1 (EMMA repository, France) were used, aged between 8 and 12 weeks, and cared for by the staff at Nottingham Trent University. All work was carried out under a Home Office project licence. Peptides were dissolved in PBS to 1 mg/ml and then emulsified (a series of dilutions) with different adjuvants: CpG and MPLA 6 μg/mouse of each (Invivogen, UK), Incomplete Freund's 50 μl/mouse (Sigma, UK), poly I:C 10 μg/mouse (Invivogen, UK), Imiquimod 25 μg/mouse (Invivogen, UK) and GMCSF 10 μg/mouse (Peprotech, UK). […]
Elispot assays were performed using murine IFNγ, IL-17 and IL-10 capture and detection reagents according to the manufacturer's instructions (Mabtech, Sweden). […] After incubation, captured IFN and IL-10 were detected by biotinylated anti-IFNγ and IL-10 antibodies and developed with a streptavidin alkaline phosphatase and chromogenic substrate. Spots were analysed and counted using an automated plate reader (Cellular Technologies Ltd).
Screening was performed to identify potential citrullinated Enolase epitopes in mice. […] After 14 days the mice were culled and the immune responses to each peptide within the immunising pool were assessed by ex vivo Elispot (FIG. 2). […]

The test system of assay [7] is splenocytes. Briefly: Peptide immunisation and ex vivo Elispot, DP4 mice. The format is in vivo, HHD/HLA-DP4 transgenic mouse. The procedure: as §1, §2
[8] abbreviates: DR4 mice immunised with human 241cit.

Square brackets hold non-standard residues; d marks the D form. Ends that are not written are not given here. Cit = NC(=O)NCCC[C@H](N)C(=O)O

On to “EVDLFTSKGLF-CIT-AAVPSGAS [Enolase 21cit]”, for which the “IFNγ response to peptide compared to media” value with splenocytes [1] is listed as “significant response”. In addition, in the assay with splenocytes [2] (DR4 mice), the “IFNγ response to the human sequence” value is on record as “not” and the “IFNγ response to the mouse sequence” value was “low level but significant response”. Further, in the assay on splenocytes [3], the “IFNγ response in presence of CD4 blocking antibody” value is given as “efficiently blocked”, the “IFNγ response in presence of CD8 blocking antibody” value was “not” and the “IFNγ response to the citrullinated peptide” value is recorded as “strong IFNγ responses”.
As to EVDLYTAKGLF-CIT-AAVPSGAS [mouse 21cit], the “IFNγ response to peptide compared to media” value in the assay on splenocytes [1] was “not”.
For FKSPDDPS-CIT-YISPDQLADLY [human 261cit], the “IFNγ response to peptide compared to media” value with splenocytes [1] is listed as “significant response”.
Still for that read-out and setting: to FKSPDDPS-CIT-YITPDQLADLY [mouse 261cit] belongs “not”.
For IFDScitGNPTVEVDLF [enolase 11cit], in the assay on splenocytes [3], the “IFN response to the equivalent murine sequence” value was “cross reacted”, the “IFNγ response in presence of CD4 blocking antibody” value is listed as “abrogated the response”, the “IFNγ response in presence of CD8 blocking antibody” value is “no effect” and the “IFNγ response to the citrullinated peptide” value is recorded as “IFN responses”. In addition, in the assay on splenocytes [3], the “IFNγ response to the wt peptide” value was “minimal reactivity” and the “IL-10 response to the citrullinated peptide” value is recorded as “No IL-10 responses”.
Regarding KGVPLY-CIT-HIADLAGNPEVIL [mouse 126cit], the “IFNγ response to peptide compared to media” value in the assay on splenocytes [1] is “significant response”; in the assay on splenocytes [4], “not”.
On to “KGVPLY-CIT-HIADLAGNSEVIL [Enolase 126cit]”, for which the “IFNγ response to the human sequence” value in the assay with splenocytes [5] is given as “not”; with splenocytes [2] (DR4 mice), “low level significant response”. Also, the “IFNγ response to peptide compared to media” value in the assay with splenocytes [1] was “not”; in the assay on splenocytes [4], “significant response”.
MSILKIHA-CIT-EIFDSRGNPTV [Enolase 1-20]: in the assay with splenocytes [4], the “IFNγ response to peptide compared to media” value is “did not induced a significant response”.
Regarding MSILRIHA-CIT-EIFDSRGNPTV [mouse 1cit], the “IFNγ response to peptide compared to media” value in the assay on splenocytes [4] is recorded as “did induce a response”.
Regarding VGDDLTVTNPK-CIT-IAKAASEK [mouse 316cit], in the assay on splenocytes [4], the “IFNγ response to peptide compared to media” value is “not”.
With “VGDDLTVTNPK-CIT-IAKAVNEK [Enolase 316cit]”, in the assay on splenocytes [5], the “IFNγ response to the human sequence” value is “moderate response” and the “IFNγ response to the mouse sequence” value is recorded as “not”. Also, in the assay on splenocytes [2] (DR4 mice), the “IFNγ response to the human sequence” value was “moderate response” and the “IFNγ response to the mouse sequence” value is reported as “not”. Further, the “IFNγ response to peptide compared to media” value with splenocytes [4] was “significant response”.
“VIGMDVAASEFY-CIT-SGKYDLD (VIGMDVAASEFY[Cit]SGKYDLD) [mouse 241cit]”: in the assay with splenocytes [2] (DR4 mice immunised with human 241cit, label = restimulating peptide), the “IFNγ response in presence of human MHC class II blocking antibody (L243)” value is listed as “significantly reduced”. Moreover, the “time after immunisation at which IFNγ response is detectable” value in the assay with splenocytes [2] (DR4 mice, single dose in CpG/MPLA, sacrificed after 2, 6 or 14 days) is 2 days. Further, in the assay on splenocytes [6], the “IFNγ response to peptide compared to media” value is “significant response”. In addition, in the assay with splenocytes [7] (DP4 mice, three doses of human Enolase 241cit, label = restimulating peptide), the “IFNγ response compared to the wild type peptides” value is “increased IFNγ responses”. Besides, the “IFNγ responses to citrullinated and wildtype peptide” value in the assay with splenocytes [7] (DP4 transgenic mice immunised with the murine peptide, three doses) was “specific to the citrullinated peptide but not the wildtype”.
As for “aa241-255: 15mer peptide spanning the Enolase 241-260 sequence (VIGMDVAASEFFRSG; UniProt P06733 241-255, looked up, fragment)”, the “IFNγ response to 15mer peptide spanning 241-260” value with splenocytes [2] (setting [8]) is on record as “stimulating specific responses”.
Same read-out and setting: the result for “aa246-260: 15mer peptide spanning the Enolase 241-260 sequence (VAASEFFRSGKYDLD; UniProt P06733 246-260, looked up, fragment)” reads “no response”.

Values taken from patent US11382985B2, “Anti-tumour immune responses to modified self-epitopes” (Scancell Limited, priority 2015, dated 2022).
